Measured values: paper PMC9232112 (Science Advances, 2022)
pEC50: −log10 of the molar value.

What was measured:
measles virus polymerase = details: equivalent measles virus RdRP assay; cited from earlier work
recRSV-mKate = experiment: microbe, parasite or virus in culture; assay type: cell-based; details: human respiratory syncytial virus, read-out: EC50, apical RSV shedding

Row | SMILES | phosphodiester bond formation (measles virus polymerase) | pEC50 (recRSV-mKate)
1 | Cn1nc(C(F)(F)F)cc1C(=O)Nc1ccc(S(=O)(=O)N2CCCC[C@H]2CCN2CCOCC2)cc1 [ERDRP-0519] | completely blocks all phosphodiesterbond formation | 
2 | O=c1nc(NO)ccn1[C@@H]1O[C@H](CO)[C@@H](O)[C@H]1O [NHC, N^4-hydroxycytidine] |  | 7.30
